# According to patent US9345694B2, “Compounds for enhancing arginase activity and methods of using same” (Cornell Research Foundation, Inc., priority 2006, dated 2016):
# How the values were obtained:
# [1] = tested on: myelin-associated glycoprotein (MAG) inhibition in p5 rat cerebellar neurons; assay: MAG inhibition analysis, neurite outgrowth of p5 rat cerebellar neurons on MAG-expressing CHO cells, direct addition or priming; assay type: cell-based; conditions: priming overnight at 20 μM, then plated on MAG-expressing CHO cells
# Procedure: Compounds were tested for their ability to overcome myelin-associated glycoprotein (MAG) inhibition in primary rat neurons. […] In a first experiment, the twelve compounds were tested for their ability to overcome inhibition by MAG in culture. The compounds were tested for their ability to inhibit neurite outgrowth of MAG-expressing CHO cells. Cerebellar neurons were cultured on MAG-expressing CHO cells and neurite length is compared to neurons growing on control CHO cells, not expressing MAG. The cells were assessed for their ability to overcome MAG inhibition when added directly to the cultures at a range of concentrations from 2-20 μM. Neurons were plated at a density of about 10,000 neurons per well of an 8-well culture dish containing a monolayer of either MAG-expressing or control CHO cells. The co-cultures were, incubated for 16-18 h and then immunostained for βIII tubulin. Neurite outgrowth was quantified as previously described (Mukhopadhyay et al., 1994). […] At least 400 neurons were measured in each assay and the experiment was carried out at least twice.
# Arginase I protein [2] = assay: Western blotting and immunostaining for Arginase I protein in treated neurons; assay type: cell-based, rat; conditions: neurons treated at 20 μM for 18 hours
# Procedure: FIG. 15. Western blot and immunostaining results for arginase I protein. Neurons were treated with, daidzein (20 μM), methoxyvone (5 μM) or lanzoprazole (20 μM) for 18 hours and were then lysed and subjected to gel electrophoresis, followed by western blotting and immunostaining for Arginase I protein. As a positive control, neurons were treated with 1 mM db cAMP.
# In a second experiment, the twelve compounds were tested for their ability to upregulate arginase I protein. Neurons were treated with, daidzein (20 μM), methoxyvone (5 μM) or lanzoprazole (20 μM) for 18 hours and were then lysed and subjected to gel electrophoresis, followed by western blotting and immunostaining for Arginase I protein. As a positive control, neurons were treated with 1 mM db cAMP (FIG. 15). Db-cAMP was previously shown to increased Arginase I protein 3-fold as described by Cai, et a., Neuron. 2002 Aug. 15; 35(4):711-9.
# [3] = tested on: myelin-associated glycoprotein (MAG) inhibition in P7 rat cerebellar neurons; assay: MAG inhibition analysis, neurite outgrowth of P7 rat cerebellar neurons on MAG-overexpressing CHO cells, post-treatment; assay type: cell-based; conditions: 10 nM and 40 nM, 24 h in culture, CHO-MAG vs control CHO cells
# Procedure: Compounds were tested for their ability to overcome myelin-associated glycoprotein (MAG) inhibition in P7 rat cerebellar neurons.
# In experiments performed in the Roman Giger laboratory at the University of Rochester School of Medicine and Dentistry, twelve compounds were tested, using the materials and methods described by Venkatesh, et al., J Neurosci.
# The twelve compounds were tested in two different dilutions (10 nM and 40 nM final concentration).
# MAG-overexpressing CHO cells and control CHO feeder layers were used in the assay. All experiments were done with Percoll purified P7 rat cerebellar neurons. The twelve compounds were tested in a “post-treatment” manner. Post-treatment refers to administering the compounds after the neurons were plated.
# After 24 h in culture, cells were fixed and stained with TuJ1 (cells with neurites longer than 1 cell body diameter were quantified). Untreated cells (first column of FIGS. 11 and 12) and DMSO only (second column of FIGS. 11 and 12) were used as a negative controls. RHO-kinase inhibitor Y27632 (15 microM) (third column of FIGS. 11 and 12) was used as a positive control. All experiments have been repeated 3-5 times independently.
# In FIGS. 11 and 12, there are two bars for each compound tested.
# Arginase I protein [4] = conditions: Cai et al., cited from earlier work
SMILES,effect on releasing MAG inhibition [3],also measured
O=c1c(-c2ccc(O)cc2)coc2cc(O)ccc12 [Daidzein],no effect,ability to overcome inhibition by MAG (neurite outgrowth) [1]: overcome inhibition by MAG completely; Arginase I protein level (Arginase I protein [2]): up-regulated
Oc1cc(O)cc(/C=C/c2ccccc2)c1 [Pinosylvin],most promising,–
"COc1ccc(C[C@H]2NC[C@H](O)[C@H]2OC(C)=O)cc1 [Anisomycin, reference compound]",most promising,–
COc1ccc2c(c1)OCc1c-2oc2cc(OC)ccc12 [Dehydrovariabilin],most promising,–
"Cc1c(OCC(F)(F)F)ccnc1C[S+]([O-])c1nc2ccccc2[nH]1 (stereo not shown) [Lanzoprazole, Lansoprazole, reference compound]",–,ability to overcome inhibition by MAG (neurite outgrowth) [1]: overcome inhibition by MAG completely; Arginase I protein level (Arginase I protein [2]): up-regulated
"COC(=O)Nc1nc2ccc(Sc3ccccc3)cc2[nH]1 [Fenbendazole, reference compound]",most promising,–
CCCC(=O)Nc1ncnc2c1ncn2[C@@H]1O[C@@H]2COP(=O)(O)O[C@H]2[C@H]1OC(=O)CCC [Db-cAMP],–,"increase of Arginase I protein (Arginase I protein [4]; previously shown, Neuron 2002): 3 fold; Arginase I up-regulation (Arginase I protein [4]; shown previously, 2002): up-regulated"
"CC(=O)Nc1ccc(O)cc1 [Acetaminophen, reference compound]",no effect,–
COc1ccc(/C=C/c2cc(O)cc(O)c2)cc1 [Resveratol 4-methyl ether],no effect,–
"O=C(/C=C/c1ccc(O)c(O)c1)OCCc1ccccc1 [CAPE, Phenethyl caffeate]",no effect,–
"CC(=O)Oc1cc(OC(C)=O)c2c(c1)O[C@H](c1ccc(OC(C)=O)c(OC(C)=O)c1)[C@H](OC(C)=O)C2 [epicatechin pentaacetate, Epicatechin pentaacetate]",no effect,–
COc1cc(OC)c2c(=O)c(-c3ccc4c(c3)OCO4)coc2c1 [Derrustone],no effect,–
